Measurements published in US8426434B2, “Crystalline form of 4-[[4-[[4-(2-Cyanoethenyl)-2,6-dimethylphenyl]-amino]-2-pyrimidinyl]amino]benzonitrile” (Tibotec Pharmaceuticals Ltd., priority 2007, dated 2013).
In brackets after ≈: the same amount, converted by molar mass. Several values for one entry are separate records, joined by “and”; a condition that tells them apart may be missing. Identical values can stand only once. Like-named read-outs stand apart in the source and are kept apart here.

Key:
[1] = Intrinsic dissolution (USP dissolution apparatus 2, tablet in PTFE holder, UV at 266 nm); type: physicochemical; conditions: for average intrinsic dissolution rate / slope, average: average of samples 1-6, 0.01N HCl/methanol 1:1, 37° C.; for average intrinsic dissolution rate / slope, average / slope / intrinsic dissolution rate (IDR): 150 rpm; for slope, average: 0 to 60 min; for slope / intrinsic dissolution rate (IDR): single samples, 500 ml 0.01N HCl/methanol 1:1, 37° C.; for slope: slope calculated from 0 to 60 min; for intrinsic dissolution rate (IDR): tablet surface 0.5026 cm^2
Description: A Hanson Research SR6™ dissolution testing station equipped with a USP dissolution apparatus 2 as paddle and a poly(tetrafluoroethylene (PTFE) tablet holder was used. UV spectrometry was used to determine the concentration of TMC278 in solution. The UV analysis was carried out on an Agilent 8453™ spectrophotometer using a 2 ml cuvet. A single wavelength measurement at 266 nm was recorded with single component analysis (SCA), a single component measurement.
About 125 mg of the compound was weighed into a mould with a diameter of 0.8 cm. A tablet was made with a Speca press imposing a pressure of 1 ton for tabletting. The surface area of the tablet was 0.5026 cm^2. The tablet was adhered to the PTFE tablet holder.
21.8 mg of TMC278 was weighed into a volumetric flask of 25 ml. The product was dissolved in a 1:1.5 tetrahydrofuran/methanol mixture. A 1 ml aliquot was transferred into a 200 ml volumetric flask and diluted to the mark using 0.01N HCl. The concentration of the reference solution was […].
The tablet holders with the tablets were placed in a USP2 dissolution bath. The vessels contained 500 ml 0.01N HCl/methanol 1:1 and were thermostatically controlled at 37° C. The paddles were used with a rotation speed of 150 rpm (rounds per minute). A sample was withdrawn each 10 minutes and the concentration was determined with UV spectrometry. The slope was calculated on the measuring points between 0 and 60 minutes. The slope was expressed as mg %/minute. The intrinsic dissolution rate (IDR), expressed as mg/(cm^2×min), was calculated.

[2] = Solubility in buffer pH4, buffer pH2 and 0.01N HCl; type: physicochemical
wild type HIV = conditions: in words; described in WO 03/16306; cited from earlier work
[3] = test system: drug and multidrug resistant HIV strains; conditions: in words; strains resistant to NNRTIs such as efavirenz, nevirapine, delavirdine; cited from earlier work

Structure (SMILES)	average intrinsic dissolution rate [1]	slope, average [1] [mg %/minute]	intrinsic dissolution rates, compared to Polymorph II ([1]; in words)	slope [1]	intrinsic dissolution rate (IDR) [1]	Solubility ([2]; 0.01N HCl, pH 2.1) [mg/100 ml]	Solubility ([2]; Buffer pH4, pH 4.0) [mg/100 ml]	Solubility ([2]; buffer pH2, pH 2.1, aqueous buffer, Buffer pH2, pH 2.1, read-out: Solubility) [µg/mL]	solubility at lower pH, compared to Polymorph II ([2]; lower pH, in words)	average intrinsic dissolution rate ([1]; listed as polymorph II)	solubility in water ([2]; water, in words)	activity against wild type HIV (wild type HIV)	activity against drug and multidrug resistant HIV strains [3]
Cc1cc(/C=C/C#N)cc(C)c1Nc1ccnc(Nc2ccc(C#N)cc2)n1 [TMC278 polymorph I, (E) 4-[[4-[[4-(2-cyanoethenyl)-2,6-dimethylphenyl]amino]-2-pyrimidinyl]amino]benzonitrile]	0.3362 mg/(cm^2 × min)	0.0338	increased intrinsic dissolution rates	0.0358 mg %/minute and 0.0353 mg %/minute and 0.0309 mg %/minute and 0.0347 mg %/minute and 0.0343 mg %/minute and 0.0319 mg %/minute	0.3559 mg/(cm^2 × min) and 0.3508 mg/(cm^2 × min) and 0.3074 mg/(cm^2 × min) and 0.3447 mg/(cm^2 × min) and 0.3417 mg/(cm^2 × min) and 0.3169 mg/(cm^2 × min)	4.1	0.07	6.4 (≈ 17.5 µM)	increased solubility at lower pH				
Cc1cc(/C=C/C#N)cc(C)c1Nc1ccnc(Nc2ccc(C#N)cc2)n1 [TMC278 polymorph II, 4-[[4-[[4-(2-cyanoethenyl)-2,6-dimethylphenyl]-amino]-2-pyrimidinyl]-amino-]-benzonitrile, reference compound]	0.2886 mg/(cm^2 × min)	0.0290		0.0283 mg %/minute and 0.0281 mg %/minute and 0.0290 mg %/minute and 0.0305 mg %/minute and 0.0288 mg %/minute and 0.0294 mg %/minute	0.2819 mg/(cm^2 × min) and 0.2795 mg/(cm^2 × min) and 0.2886 mg/(cm^2 × min) and 0.3035 mg/(cm^2 × min) and 0.2861 mg/(cm^2 × min) and 0.2921 mg/(cm^2 × min)	1.9	0.03			0.2886 mg/(cm^2 × min)			
Cc1cc(/C=C/C#N)cc(C)c1Nc1ccnc(Nc2ccc(C#N)cc2)n1 [TMC278, 4-[[4-[[4-(2-cyanoethenyl)-2,6-dimethylphenyl]-amino]-2-pyrimidinyl]-amino-]-benzonitrile]											relatively low solubility in water	pronounced activity	shows activity
